Measured values taken from patent publication US20090143279A1 (priority 2007, published 2009).
Like-named read-outs stand apart in the source and are kept apart here. Where a SMILES comes first, the peptide text is derived from it.

Columns and labels:
[1] = tested on: mitochondrial membrane potential; type: cell-based, mouse; details: for ΔΨm (composite Z-score): normalized score vs mock-treated (DMSO) wells
[2] = tested on: nuOXPHOS transcripts; type: cell-based, mouse; details: for nucOX (composite Z-score): normalized score vs mock-treated (DMSO) wells; for nucOXPHOS Z: Table 7, C2C12 myotubes, 48 h, composite Z-score
[3] = tested on: reactive oxygen species; type: cell-based, mouse; details: for ROS (composite Z-score): normalized score vs mock-treated (DMSO) wells
[4] = tested on: C2C12 myotubes; details: for Viability (composite Z-score): normalized score vs mock-treated (DMSO) wells
[5] = tested on: cellular dehydrogenase activity; details: for MTT (composite Z-score): normalized score vs mock-treated (DMSO) wells
[6] = tested on: mtOXPHOS transcripts; type: cell-based, mouse; details: for mitoOX (composite Z-score): normalized score vs mock-treated (DMSO) wells; for mito-OXPHOS Z: Table 7, C2C12 myotubes, 48 h, composite Z-score
[7] = tested on: OXPHOS gene expression; type: cell-based, mouse; details: for GE-HTS (composite Z-score): normalized score vs mock-treated (DMSO) wells
[8] = tested on: cytochrome c; type: cell-based, mouse; details: for cyt c (composite Z-score): normalized score vs mock-treated (DMSO) wells
[9] = normalized composite Z-score vs mock-treated (DMSO) wells, Conc 20 μM
[10] = composite Z-score vs mock-treated (DMSO) wells, Conc 20 μM
[11] = composite Z-score vs DMSO, Conc 20 μM
[12] = composite Z-score vs mock-treated (DMSO) wells, concentration of each compound in μM
[13] = composite Z-score vs DMSO, Conc 15.42 μM
[14] = composite Z-score vs DMSO, Conc 15.08 μM
[15] = composite Z-score vs DMSO wells, Conc 20 μM

In the case of `COC(=O)C[C@H]1C(C)(C)C2(O)OC34CC2C(=O)[C@]1(C)C3CC[C@]1(C)C4=CC(=O)O[C@H]1c1ccoc1` (stereo partly drawn) [8beta-hydroxycarapin, 3,8-hemiacetal], the “ΔΨm (composite Z-score)” value ([1]; Conc 20 μM) is reported as −0.251, the “nucOX (composite Z-score)” value ([2]; Conc 20 μM) is reported as 0.472 and the “ROS (composite Z-score)” value ([3]; Conc 20 μM) is reported as 1.075. For the same molecule, the “Viability (composite Z-score)” value ([4]; Conc 20 μM) was 0.561, the “MTT (composite Z-score)” value ([5]; Conc 20 μM) was 0.204 and the “mitoOX (composite Z-score)” value ([6]; Conc 20 μM) was 0.789. The “GE-HTS (composite Z-score)” value ([7]; Conc 20 μM) was 0.600 and the “cyt c (composite Z-score)” value ([8]; Conc 20 μM) was 0.436.

In the case of `CC[C@@]1(O)C(=O)OCc2c1cc1n(c2=O)Cc2cc3cc(O)ccc3nc2-1` [10-hydroxycamtothecin], the “ΔΨm (composite Z-score)” value ([1]; Conc 20 μM) is reported as 0.725, the “nucOX (composite Z-score)” value ([2]; Conc 20 μM) is reported as −1.180 and the “ROS (composite Z-score)” value ([3]; Conc 20 μM) is reported as −1.681. For the same molecule, the “Viability (composite Z-score)” value ([4]; Conc 20 μM) was −1.466, the “MTT (composite Z-score)” value ([5]; Conc 20 μM) was −2.588 and the “mitoOX (composite Z-score)” value ([6]; Conc 20 μM) was −0.782. For the same molecule, the “GE-HTS (composite Z-score)” value ([7]; Conc 20 μM) was −1.137 and the “cyt c (composite Z-score)” value ([8]; Conc 20 μM) was −2.397.

`CC(=O)O[C@H]1CC[C@]2(C)[C@H]3C(=O)C=C4[C@@H]5[C@@H](C)[C@H](C)CC[C@]5(C(=O)O)CC[C@@]4(C)[C@]3(C)CC[C@H]2C1(C)C` [11-oxoursolic acid acetate] showed a ΔΨm [1, 9] of −0.524, a nucOX [2, 9] of −0.304 and an ROS [3, 9] of 0.280. The Viability [4, 9] was 1.094, the MTT [5, 9] was −1.214 and the mitoOX [6, 9] was −0.027. The GE-HTS [7, 9] was −0.240 and the cyt c [8, 9] was −1.393.

In the case of `CC(C)c1ccc2c(c1)CCC1[C@](C)(CN)CCC[C@]21C.O=S(=O)(O)O` (some centres unmarked) [18-aminoabieta-8,11,13-triene sulfate], the “ΔΨm (composite Z-score)” value ([1]; Conc 20 μM) is reported as −0.519, the “nucOX (composite Z-score)” value ([2]; Conc 20 μM) is reported as −0.771 and the “ROS (composite Z-score)” value ([3]; Conc 20 μM) is reported as 2.176. The “Viability (composite Z-score)” value ([4]; Conc 20 μM) was −0.143, the “MTT (composite Z-score)” value ([5]; Conc 20 μM) was −0.762 and the “mitoOX (composite Z-score)” value ([6]; Conc 20 μM) was −0.462. The “GE-HTS (composite Z-score)” value ([7]; Conc 20 μM) was −0.727 and the “cyt c (composite Z-score)” value ([8]; Conc 20 μM) was 0.507.

Work on `CC(C)c1c(O)ccc2c1CC[C@H]1[C@@](C)(CO)CCC[C@]21C` [19-hydroxytotarol] yielded a ΔΨm [1, 10] of 0.453, a nucOX [2, 10] of −0.128 and an ROS [3, 10] of 1.558. It also gave a Viability [4, 10] of −0.207, an MTT [5, 10] of 1.198 and a mitoOX [6, 10] of 0.086. It also gave a GE-HTS [7, 10] of −0.041 and a cyt c [8, 10] of 1.305.

With `Oc1ccc([C@H]2Oc3cc(O)cc(O)c3C[C@H]2O)cc1` [(2R,3R)-(−)-epiafzelechin] the ΔΨm [1, 11] was −3.118, the nucOX [2, 11] was −0.559 and the ROS [3, 11] was 1.019. It also gave a Viability [4, 11] of −0.719, an MTT [5, 11] of −0.486 and a mitoOX [6, 11] of −0.225. It also gave a GE-HTS [7, 11] of −0.497 and a cyt c [8, 11] of 0.166.

Work on `CN1CCc2cc3c(cc2[C@H]1[C@@H]1OC(=O)c2c1ccc1c2OCO1)OCO3` [(+)-bicuculline] yielded a ΔΨm [1] of −0.852, a ΔΨm [1, 11] of −0.945 and a nucOX [2, 11] of −0.028. For the same molecule, the ROS [3] was 0.256, the ROS [3, 11] was 0.428 and the Viability [4] was −0.190. The Viability [4, 11] was −0.572, the MTT [5] was −1.330 and the MTT [5, 11] was −0.812. It also gave a mitoOX [6, 11] of −0.495, a GE-HTS [7, 11] of −0.189 and a cyt c [8] of 0.300. For the same molecule, the cyt c [8, 11] was −0.116.

Work on `CN1Cc2c(ccc3c2OCO3)[C@@H]2[C@H]1c1cc3c(cc1C[C@@H]2O)OCO3` [(+)-chelidonine] yielded a ΔΨm [1, 12] of −1.123, a nucOX [2, 12] of 0.901 and an ROS [3, 12] of −1.486. For the same molecule, the Viability [4, 12] was −1.005, the MTT [5, 12] was −1.988 and the mitoOX [6, 12] was 0.836. The GE-HTS [7, 12] was 0.941 and the cyt c [8, 12] was −1.144.

`COc1ccc([C@@H](C)C(=O)c2ccc(O)cc2O)cc1` [(R)-angolensin] gave a ΔΨm [1, 10] of −0.444, a nucOX [2, 10] of 0.703 and an ROS [3, 10] of 0.225. The Viability [4, 10] was −0.164, the MTT [5, 10] was −0.743 and the mitoOX [6, 10] was −0.245. The GE-HTS [7, 10] was 0.403 and the cyt c [8, 10] was −0.063.

For `CC(C)NC[C@H](O)COc1cccc2ccccc12` [(S)-propranolol], the ΔΨm [1, 13] was −0.340, the nucOX [2, 13] was 0.623 and the ROS [3, 13] was −0.185. For the same molecule, the Viability [4, 13] was 0.307, the MTT [5, 13] was −0.351 and the mitoOX [6, 13] was 1.161. For the same molecule, the GE-HTS [7, 13] was 0.857 and the cyt c [8, 13] was 0.349.

`COc1ccc([C@H]2COc3c(ccc(O)c3OC)C2)c(OC)c1O` [(−)-duartin] was tested, and the ΔΨm [1, 12] was 0.392, the nucOX [2, 12] was −0.331 and the ROS [3, 12] was 0.900. For the same molecule, the Viability [4, 12] was 1.175, the MTT [5, 12] was −0.571 and the mitoOX [6, 12] was 0.466. For the same molecule, the GE-HTS [7, 12] was −0.048 and the cyt c [8, 12] was −0.472.

For `COc1ccc(C[C@H]2NC[C@H](O)[C@H]2OC(C)=O)cc1` [Anisomycin, reference compound], the ΔΨm [1, 14] was −1.537, the “nucOXPHOS Z” value [2] was 1.26 and the nucOX [2, 14] was 1.256. The nuOXPHOS expression ([2]; screen, relative to mtOXPHOS, in words) was “preferentially increase”, the ROS [3, 14] was −2.958 and the Viability [4, 14] was −2.835. For the same molecule, the MTT [5, 14] was −4.623, the “mito-OXPHOS Z” value [6] was −3.55 and the mitoOX [6, 14] was −3.545. It also gave a GE-HTS [7, 14] of −0.353 and a cyt c [8, 14] of −2.841.

`COc1cccc2c1C(=O)c1c(O)c3c(c(O)c1C2=O)C[C@@](O)(C(C)=O)C[C@@H]3O[C@H]1C[C@H](N)[C@H](O)[C@H](C)O1` [Daunorubicin, reference compound] was tested, and the ΔΨm [1] was −2.337, the nucOX [2] was −2.094 and the “nucOXPHOS Z” value [2] was −2.09. For the same molecule, the ROS [3] was −2.398, the Viability [4] was −3.547 and the MTT [5] was −5.009. For the same molecule, the mitoOX [6] was 1.373, the “mito-OXPHOS Z” value [6] was 1.37 and the GE-HTS [7] was −1.008. For the same molecule, the cyt c [8] was −3.722.

For `Cc1c(O)c(O)cc2c1CC=C1[C@@]2(C)CC[C@@]2(C)[C@@H]3C[C@](C)(C(=O)O)CC[C@]3(C)CC[C@]12C` [Dihydrocelastrol, reference compound], the ΔΨm [1, 9] was −3.514, the “nucOXPHOS Z” value [2] was 2.18 and the nucOX [2, 9] was 2.183. For the same molecule, the ROS [3, 9] was −3.065, the Viability [4, 9] was −4.120 and the MTT [5, 9] was −5.524. For the same molecule, the “mito-OXPHOS Z” value [6] was −5.22, the mitoOX [6, 9] was −5.217 and the GE-HTS [7, 9] was −0.295. It also gave a cyt c [8, 9] of −4.583.

`C[C@H](N)CO` [I-alaninol] was tested, and the ΔΨm [1, 11] was −0.428, the nucOX [2, 11] was −0.555 and the ROS [3, 11] was 0.242. It also gave a Viability [4, 11] of −0.353, an MTT [5, 11] of −0.342 and a mitoOX [6, 11] of −0.738. For the same molecule, the GE-HTS [7, 11] was −0.652 and the cyt c [8, 11] was 0.301.

`CC(C)C[C@H](N)C(=O)N[C@@H](C)C(=O)O` [L-leucyl-L-alanine] (H-Leu-Ala-OH) was tested, and the ΔΨm [1, 11] was −0.307, the nucOX [2, 11] was 0.465 and the ROS [3, 11] was 0.301. For the same molecule, the Viability [4, 11] was −0.600, the MTT [5, 11] was −0.320 and the mitoOX [6, 11] was 0.093. For the same molecule, the GE-HTS [7, 11] was 0.365 and the cyt c [8, 11] was −0.861.

`O[C@H]1[C@H]2c3cc4c(cc3CN3CCC(=C[C@@H]1O)[C@H]23)OCO4` [Lycorine, reference compound] gave a ΔΨm [1, 11] of −2.570, a nucOX [2, 11] of 1.103 and an ROS [3, 11] of −2.639. It also gave a Viability [4, 11] of −2.922, an MTT [5, 11] of −4.612 and a mitoOX [6, 11] of −5.387. It also gave a GE-HTS [7, 11] of −1.119 and a cyt c [8, 11] of −1.288.

In the case of `NCCNC(=O)c1ccc(Cl)cc1` [N-(2-aminoethyl)-4-chlorobenzamide], the ΔΨm [1, 15] is reported as −1.051, the nucOX [2, 15] is reported as 0.175 and the ROS [3, 15] is reported as 1.036. It also gave a Viability [4, 15] of −1.090, an MTT [5, 15] of −0.669 and a mitoOX [6, 15] of −0.205. For the same molecule, the GE-HTS [7, 15] was 0.065 and the cyt c [8, 15] was −0.423.

With `CC(=O)N[C@@H](CC(=O)O)C(=O)O` [N-acetylaspartic acid] the “ΔΨm (composite Z-score)” value ([1]; Conc 20 μM) was −0.663, the “nucOX (composite Z-score)” value ([2]; Conc 20 μM) was −0.436 and the “ROS (composite Z-score)” value ([3]; Conc 20 μM) was 0.309. The “Viability (composite Z-score)” value ([4]; Conc 20 μM) was −0.266, the “MTT (composite Z-score)” value ([5]; Conc 20 μM) was −0.456 and the “mitoOX (composite Z-score)” value ([6]; Conc 20 μM) was −1.046. The “GE-HTS (composite Z-score)” value ([7]; Conc 20 μM) was −0.670 and the “cyt c (composite Z-score)” value ([8]; Conc 20 μM) was 0.753.
